Patent US20250113823A1, “Arthropod Control Compositions” (priority 2022, published 2025)
Like-named read-outs stand apart in the source and are kept apart here.

System: Aedes aegypti
Experiment: Warm Body assay, mosquito landings on treated warm body
Assay type: in vivo
Details: for pest or weed control at 16 µg/mL / pest or weed control at 400 µg/mL / pest or weed control at 10000 µg/mL / pest or weed control at 1 % / pest or weed control at 0.0016 % / pest or weed control at 0.04 % / pest or weed control at 3.2 µg/mL / pest or weed control at 35.7 µg/mL / pest or weed control at 80 µg/mL / pest or weed control at 178 µg/mL / pest or weed control at 890 µg/mL / pest or weed control at 2000 µg/mL / pest or weed control at 7.1 µg/mL / pest or weed control at 53 µg/mL / pest or weed control at 119 µg/mL / pest or weed control at 267 µg/mL / pest or weed control at 598 µg/mL / pest or weed control at 4470 µg/mL: Aedes aegypti; for pest or weed control at 16 µg/mL / pest or weed control at 400 µg/mL / pest or weed control at 10000 µg/mL / pest or weed control at 3.2 µg/mL / pest or weed control at 35.7 µg/mL / pest or weed control at 80 µg/mL / pest or weed control at 178 µg/mL / pest or weed control at 890 µg/mL / pest or weed control at 2000 µg/mL / pest or weed control at 7.1 µg/mL / pest or weed control at 53 µg/mL / pest or weed control at 119 µg/mL / pest or weed control at 267 µg/mL / pest or weed control at 598 µg/mL / pest or weed control at 4470 µg/mL: read-out: Percentage of repellence of mosquitoes Aedes aegypti landing on the warm body; for pest or weed control at 1 % / mosquito landing within the two minutes of experiments: highest tested concentration, 1% (Table 3); for pest or weed control at 1 % / pest or weed control at 0.04 %: read-out: repellence; for pest or weed control at 0.0016 %: read-out: reduce the number of mosquito landings; for pest or weed control at 0.04 %: intermediate concentration of 0.04% (Table 3); for pest or weed control at 7.1 µg/mL: 0.0071 mg/mL (Table 1); for pest or weed control at 53 µg/mL: 0.053 mg/mL (Table 1); for pest or weed control at 119 µg/mL: 0.119 mg/mL (Table 1); for pest or weed control at 267 µg/mL: 0.267 mg/mL (Table 1); for pest or weed control at 598 µg/mL: 0.598 mg/mL (Table 1); for pest or weed control at 4470 µg/mL: 4.47 mg/mL (Table 1)
Protocol: The arthropod controlling effect according to the present invention is determined on mosquitoes using an adapted Warm Body assay as defined in Kröber T, Kessler S, Frei J, Bourquin M, Guerin PM. An in vitro assay for testing mosquito controlling compounds employing a warm body and carbon dioxide as a behavioral activator. J Am Mosq Control Assoc. 2010; 26: 381-386. Further information is provided in the accompanying examples
The controlling effect, repellence & spatial repellence, according to the present invention is determined by testing the Warm Body assay against the yellow fever mosquito, Aedes aegypti Rockefeller strain. […] Observations of controlling efficacy were made on host-seeking females of uniform age, 5 to 10 days old selected as mentioned in the publication mentioned hereinabove. Tested hungry females had access to 10% sugar solution but were not blood-fed. Further information is provided in the accompanying examples.
The published protocol has been adapted in not manually counting the landing mosquitoes but automatically using an automatic counting software, the switch from Anopheles gambiae to A. aegypti led to a decrease of mosquitoes' number placed in the tested cage due to the size difference (i.e. 30 mosquitoes instead of 50) and to an increase of lighting as A. aegypti is a diurnal mosquitoes (i.e. 150 lux instead of 4 lux). Further information is provided in the accompanying examples. […]
The controlling effect according to the present invention was assessed using an adapted Warm Body assay as defined in Kröber T, Kessler S, Frei J, Bourquin M, Guerin P M. 2010. J Am Mosq Control Assoc. 26: 381-386. In this in-vitro assay the number of mosquito landing on a warm body, simulating an attractive host treated with the tested stimuli, was measured in order to assess the repellence effect.
The published protocol has been adapted as the switch from Anopheles gambiae to Aedes aegypti led to a decrease of mosquitoes placed in the tested cage due to the size difference (i.e. 30 mosquitoes instead of 50) and to an increase of lighting since A. aegypti is a diurnal mosquitoes (i.e. 150 lux instead of 4 lux).
On the sandblasted glass Petri dish covering the warm body (28.3 cm^2), 100 μL of the compounds diluted at different concentrations in ethanol was applied. The number of mosquito landing on the warm body was counted for each stimulus and pure ethanol (solvent) as control.

[1] = lowest concentration of 0.0016% (Table 3)

## COc1cc(C(C)OC)ccc1O (stereo not shown) [compound 1480, 2-methoxy-4-(1-methoxyethyl)phenol]
0.016 mg/mL (Table 3)
  pest or weed control at 16 µg/mL: 66%
0.4 mg/mL (Table 3)
  pest or weed control at 400 µg/mL: 61%
10 mg/mL (Table 3)
  pest or weed control at 10000 µg/mL: 100%
  pest or weed control at 1 %: > 90%
  mosquito landing within the two minutes of experiments: protect the attractive stimulus for any mosquito landing
[1]
  pest or weed control at 0.0016 %: > 50%

## CCOc1cc(C=O)ccc1OC [compound 2272, 3-ethoxy-4-methoxybenzaldehyde]
0.016 mg/mL (Table 3)
  pest or weed control at 16 µg/mL: 0%
0.4 mg/mL (Table 3)
  pest or weed control at 400 µg/mL: 77%
10 mg/mL (Table 3)
  pest or weed control at 10000 µg/mL: 89%
  pest or weed control at 0.04 %: > 75%

## COc1cc(C2CCCO2)ccc1O (stereo not shown) [compound 1481, 2-methoxy-4-(oxolan-2-yl)phenol]
0.016 mg/mL (Table 3)
  pest or weed control at 16 µg/mL: 21%
0.4 mg/mL (Table 3)
  pest or weed control at 400 µg/mL: 89%
10 mg/mL (Table 3)
  pest or weed control at 10000 µg/mL: 97%
  pest or weed control at 1 %: > 90%
  pest or weed control at 0.04 %: > 75%

## COc1ccc(O)c(OC)c1OC [compound 1204, 2,3,4-trimethoxyphenol]
0.016 mg/mL (Table 3)
  pest or weed control at 16 µg/mL: 46%
0.4 mg/mL (Table 3)
  pest or weed control at 400 µg/mL: 83%
10 mg/mL (Table 3)
  pest or weed control at 10000 µg/mL: 92%
  pest or weed control at 1 %: > 90%
  pest or weed control at 0.04 %: > 75%

## C=CC(C)CCCC(C)(C)OCC=Cc1ccc(O)c(OC)c1 (stereo not shown) [compound 1519, 4-{3-[(2,6-dimethyl-7-octen-2-yl)oxy]-1-propen-1-yl}-2-methoxyphenol]
0.016 mg/mL (Table 3)
  pest or weed control at 16 µg/mL: 67%
0.4 mg/mL (Table 3)
  pest or weed control at 400 µg/mL: 71%
10 mg/mL (Table 3)
  pest or weed control at 10000 µg/mL: 95%
  pest or weed control at 1 %: > 90%
[1]
  pest or weed control at 0.0016 %: > 50%

## COc1cc(C(=O)O)cc(OC)c1O [compound 2270, 4-hydroxy-3,5-dimethoxybenzoic acid]
0.016 mg/mL (Table 3)
  pest or weed control at 16 µg/mL: 67%
0.4 mg/mL (Table 3)
  pest or weed control at 400 µg/mL: 62%
10 mg/mL (Table 3)
  pest or weed control at 10000 µg/mL: 87%
[1]
  pest or weed control at 0.0016 %: > 50%

## CC=Cc1cc(OC)ccc1OC [compound 1196, 1,4-dimethoxy-2-[1-propen-1-yl]benzene]
  pest or weed control at 16 µg/mL: 57%
  pest or weed control at 400 µg/mL: 74%
  pest or weed control at 10000 µg/mL: 86%
  pest or weed control at 0.0016 %: > 50%

## COc1cc(C=CC=O)ccc1O [compound 1527, 3-(4-hydroxy-3-methoxyphenyl)pro-2-enal]
0.016 mg/mL (Table 3)
  Percentage of repellence of mosquitoes Aedes aegypti landing on the warm body: 69%
0.4 mg/mL (Table 3)
  Percentage of repellence of mosquitoes Aedes aegypti landing on the warm body: 76%
10 mg/mL (Table 3)
  Percentage of repellence of mosquitoes Aedes aegypti landing on the warm body: 71%

## CC=Cc1cc(OC)c(O)c(OC)c1 [compound 1127, 2,6-dimethoxy-4-prop-1-enylphenol]
0.0032 mg/mL (Table 2)
  pest or weed control at 3.2 µg/mL: 17%
0.016 mg/mL (Table 2)
  pest or weed control at 16 µg/mL: 1%
0.0357 mg/mL (Table 2)
  pest or weed control at 35.7 µg/mL: 0%
0.08 mg/mL (Table 2)
  pest or weed control at 80 µg/mL: 0%
0.178 mg/mL (Table 2)
  pest or weed control at 178 µg/mL: 30%
0.4 mg/mL (Table 2)
  pest or weed control at 400 µg/mL: 42%
0.89 mg/mL (Table 2)
  pest or weed control at 890 µg/mL: 59%
2 mg/mL (Table 2)
  pest or weed control at 2000 µg/mL: 100%
10 mg/mL (Table 2)
  pest or weed control at 10000 µg/mL: 96%

## COC(=O)C(C)Cc1ccc(OC)c(OC)c1 (stereo not shown) [compound 1698, methyl 3-(3,4-dimethoxyphenyl)-2-methylpropanoate]
0.016 mg/mL (Table 3)
  pest or weed control at 16 µg/mL: 45%
0.4 mg/mL (Table 3)
  pest or weed control at 400 µg/mL: 88%
10 mg/mL (Table 3)
  pest or weed control at 10000 µg/mL: 100%
  pest or weed control at 1 %: > 90%
  pest or weed control at 0.04 %: > 75%
  mosquito landing within the two minutes of experiments: protect the attractive stimulus for any mosquito landing

## CCCc1cc(OC)c(O)c(OC)c1 [compound 1502, 2,6-dimethoxy-4-propylphenol]
0.0032 mg/mL (Table 1)
  pest or weed control at 3.2 µg/mL: 0%
  pest or weed control at 7.1 µg/mL: 0%
  pest or weed control at 53 µg/mL: 61%
  pest or weed control at 119 µg/mL: 14%
  pest or weed control at 267 µg/mL: 94%
  pest or weed control at 598 µg/mL: 94%
  pest or weed control at 4470 µg/mL: 100%
0.016 mg/mL (Table 1)
  pest or weed control at 16 µg/mL: 32%
0.0357 mg/mL (Table 1)
  pest or weed control at 35.7 µg/mL: 0%
0.08 mg/mL (Table 1)
  pest or weed control at 80 µg/mL: 0%
0.178 mg/mL (Table 1)
  pest or weed control at 178 µg/mL: 94%
0.4 mg/mL (Table 1)
  pest or weed control at 400 µg/mL: 88%
0.89 mg/mL (Table 1)
  pest or weed control at 890 µg/mL: 99%
2 mg/mL (Table 1)
  pest or weed control at 2000 µg/mL: 96%
10 mg/mL (Table 1)
  pest or weed control at 10000 µg/mL: 96%

## COc1cccc(OC)c1O [compound 2244, 2,6-dimethoxyphenol]
0.016 mg/mL (Table 3)
  pest or weed control at 16 µg/mL: 44%
0.4 mg/mL (Table 3)
  pest or weed control at 400 µg/mL: 59%
10 mg/mL (Table 3)
  pest or weed control at 10000 µg/mL: 85%

## COc1cc(C=CCOC(C)=O)cc(OC)c1OC [compound 2247, 3-(3,4,5-trimethoxyphenyl)-2-acetate]
0.016 mg/mL (Table 3)
  Percentage of repellence of mosquitoes Aedes aegypti landing on the warm body: 39%
0.4 mg/mL (Table 3)
  Percentage of repellence of mosquitoes Aedes aegypti landing on the warm body: 44%
10 mg/mL (Table 3)
  Percentage of repellence of mosquitoes Aedes aegypti landing on the warm body: 98%

## COc1ccc(CCC(=O)O)cc1OC [compound 1561, 3-(3,4-dimethoxyphenyl)propanoic acid]
0.016 mg/mL (Table 3)
  pest or weed control at 16 µg/mL: 9%
0.4 mg/mL (Table 3)
  pest or weed control at 400 µg/mL: 37%
10 mg/mL (Table 3)
  pest or weed control at 10000 µg/mL: 84%

## CCOc1cc(C)ccc1O [compound 1303, 2-ethoxy-4-methylphenol]
0.016 mg/mL (Table 3)
  pest or weed control at 16 µg/mL: 16%
0.4 mg/mL (Table 3)
  pest or weed control at 400 µg/mL: 21%
10 mg/mL (Table 3)
  pest or weed control at 10000 µg/mL: 100%
  pest or weed control at 1 %: > 90%
  mosquito landing within the two minutes of experiments: protect the attractive stimulus for any mosquito landing

## CCc1cc(OC)c(O)c(OC)c1 [compound 2240, 4-ethyl-2,6-dimethoxyphenol]
0.016 mg/mL (Table 3)
  pest or weed control at 16 µg/mL: 0%
0.4 mg/mL (Table 3)
  pest or weed control at 400 µg/mL: 47%
10 mg/mL (Table 3)
  pest or weed control at 10000 µg/mL: 94%
  pest or weed control at 1 %: > 90%

## COc1ccc(C#N)c(OC)c1OC [compound 2266, 2,3,4-trimethoxybenzonitrile]
0.016 mg/mL (Table 3)
  pest or weed control at 16 µg/mL: 48%
0.4 mg/mL (Table 3)
  pest or weed control at 400 µg/mL: 83%
10 mg/mL (Table 3)
  pest or weed control at 10000 µg/mL: 89%
  pest or weed control at 0.04 %: > 75%

## COc1cc(C=NCCN=Cc2cc(OC)c(OC)c(OC)c2)cc(OC)c1OC [compound 1980, 1-(3,4,5-trimethoxyphenyl)-N-[2-[(3,4,5-trimethoxyphenyl)methylideneamino]ethyl]methanimine]
0.0032 mg/mL (Table 1)
  pest or weed control at 3.2 µg/mL: 53%
  pest or weed control at 7.1 µg/mL: 57%
  pest or weed control at 53 µg/mL: 77%
  pest or weed control at 119 µg/mL: 75%
  pest or weed control at 267 µg/mL: 84%
  pest or weed control at 598 µg/mL: 88%
  pest or weed control at 4470 µg/mL: 71%
0.016 mg/mL (Table 1)
  pest or weed control at 16 µg/mL: 34%
0.0357 mg/mL (Table 1)
  pest or weed control at 35.7 µg/mL: 32%
0.08 mg/mL (Table 1)
  pest or weed control at 80 µg/mL: 92%
0.178 mg/mL (Table 1)
  pest or weed control at 178 µg/mL: 67%
0.4 mg/mL (Table 1)
  pest or weed control at 400 µg/mL: 81%
0.89 mg/mL (Table 1)
  pest or weed control at 890 µg/mL: 63%
2 mg/mL (Table 1)
  pest or weed control at 2000 µg/mL: 86%
10 mg/mL (Table 1)
  pest or weed control at 10000 µg/mL: 96%
